Source: patent US11478460B2, “Diaryl substituted 6,5-fused ring compounds as C5aR inhibitors” (CHEMOCENTRYX, INC., priority 2017, dated 2022)
pIC50: −log10 of the molar value.

target: C5aR (Homo sapiens (Human), UniProt P21730); test: Chemotaxis assay using U937 cells (C5aR mediated migration); assay type: cell-based; settings: read-out: Mig IC50
Method: U937 cells are a monocytic cell line which express C5aR, and are available from ATCC (VA). These cells were cultured as a suspension in RPMI-1640 medium supplemented with 2 mM L-glutamine, 1.5 g/L sodium bicarbonate, 4.5 g/L glucose, 10 mM HEPES, 1 mM sodium pyruvate, and 10% FBS. Cells were grown under 5% CO2/95% air, 100% humidity at 37° C. and subcultured twice weekly at 1:6 (cells were cultured at a density range of 1×10^5 to 2×10^6 cells/mL) and harvested at 1×10^6 cells/mL. Prior to assay, cells are treated overnight with 0.5 mM of cyclic AMP (Sigma, OH) and washed once prior to use. cAMP treated U937 cells can be used in C5aR ligand binding and functional assays.
Optionally, compounds may be further assayed for their ability to inhibit chemotaxis in cells. Chemotaxis assays are performed using 5 μm pore polycarbonate, polyvinylpyrrolidone-coated filters in 96-well chemotaxis chambers (Neuroprobe; Gaithersburg, Md.) using chemotaxis buffer (Hank's balanced salt solution (HBSS) and 1% FBS). C5aR ligands (i.e., C5a, R&D Systems; Minneapolis, Minn.) are use to evaluate compound mediated inhibition of C5aR mediated migration. Other chemokines (i.e., SDF-1α; R&D Systems; Minneapolis, Minn.) are used as specificity controls. The lower chamber is loaded with 29 μl of chemokine (i.e., 0.03 nM C5a) and varying amounts of compound; the top chamber contains 100,000 U937 or neutrophil cells in 20 μl. The chambers are incubated 1.5 hours at 37° C., and the number of cells in the lower chamber quantified either by direct cell counts in five high powered fields per well or by the CyQuant assay (Molecular Probes), a fluorescent dye method that measures nucleic acid content and microscopic observation.
The compounds in Table 1, below, were prepared using the methods described above. Characterization data is provided for each compound listed. Activity is provided as follows for the chemotaxis assay using U937 cells as described herein (Example 12): +, 500 nM<IC50; ++, 50 nM<IC50≤500 nM; +++, 5 nM<IC50≤50 nM; and ++++, IC50≤5 nM.

C5aR, sequence (P21730 whole entry): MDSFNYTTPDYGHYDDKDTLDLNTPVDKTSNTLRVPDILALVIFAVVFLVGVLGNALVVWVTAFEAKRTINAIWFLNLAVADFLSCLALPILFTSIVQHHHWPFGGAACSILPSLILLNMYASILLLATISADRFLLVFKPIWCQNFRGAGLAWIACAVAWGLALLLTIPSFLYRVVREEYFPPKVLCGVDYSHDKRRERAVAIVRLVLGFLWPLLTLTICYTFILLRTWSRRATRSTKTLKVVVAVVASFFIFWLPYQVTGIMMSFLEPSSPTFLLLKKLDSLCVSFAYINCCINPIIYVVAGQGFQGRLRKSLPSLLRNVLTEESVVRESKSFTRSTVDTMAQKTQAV

| pIC50 | Structure (SMILES) |
| --- | --- |
| 7.30 to 8.30 | Cc1cccc(OCC(C)C)c1-n1nc2c(c1-c1ccc(NC(N)=O)cc1)CN(Cc1c(Cl)cccc1Cl)CC2 [Example 1.367] |
| 6.30 to 7.30 | Cc1cccc(C)c1-n1nc2c(c1-c1ccc(NC(N)=O)cc1)CN(C(=O)OC(C)(C)C)CC2 [Example 1.417] |
| ≥ 8.30 | Cc1cccc(OCC(C)C)c1-n1nc2c(c1-c1ccc(NC(N)=O)cc1)CN(Cc1c(C(F)(F)F)ccc(Cl)c1Cl)CC2 [Example 1.333] |
| 7.30 to 8.30 | Cc1cccc(C)c1CN1CCc2nn(-c3c(C)cccc3OCC(C)C)c(-c3ccc(NC(N)=O)cc3)c2C1 [Example 1.376] |
| 7.30 to 8.30 | CCOc1cccc(C)c1-n1nc2c(c1-c1ccc(NC(N)=O)cc1)CN(c1ccccc1C(C)C)CC2 [Example 1.475] |
| ≥ 8.30 | Cc1cc(F)c(C(C)C)cc1N1CCc2nn(-c3c(C)cccc3OCC(C)C)c(-c3ccc(NC(N)=O)cc3)c2C1 [Example 1.427] |
| 7.30 to 8.30 | Cc1cc(C(F)(F)F)ccc1N1CCc2nn(-c3c(C)cccc3OCC(C)C)c(-c3ccc(NC(N)=O)cc3)c2C1 [Example 1.377] |
| 7.30 to 8.30 | Cc1cccc(OCC(C)C)c1-n1nc2c(c1-c1ccc(NC(N)=O)cc1)CN(c1ccc(C(F)(F)F)cc1F)CC2 [Example 1.378] |
| 7.30 to 8.30 | Cc1ccc(C(C)(C)C)cc1N1CCc2nn(-c3c(C)cccc3C(C)C)c(-c3ccc(NC(N)=O)cc3)c2C1 [Example 1.388] |
| ≥ 8.30 | Cc1cccc(OCC(C)C)c1-n1nc2c(c1-c1ccc(NC(N)=O)cc1)CN(Cc1ccc(Cl)cc1Cl)CC2 [Example 1.328] |
| < 6.30 | Cc1cccc(OCC(C)C)c1-n1nc2c(c1-c1ccc(NC(N)=O)cc1)CN(C(=O)NC(C)(C)C)CC2 [Example 1.437] |
| 7.30 to 8.30 | Cc1cccc(OCC(C)C)c1-n1nc2c(c1-c1ccc(NC(N)=O)cc1)CN(CC(C(F)(F)F)C(F)(F)F)CC2 [Example 1.346] |
| 7.30 to 8.30 | Cc1cccc(OCC(C)C)c1-n1nc2c(c1-c1ccc(NC(N)=O)cc1)CN(C(=O)OC(C)(C)C)CC2 [Example 1.439] |
| 6.30 to 7.30 | Cc1cc(C(N)=O)ccc1-c1c2c(nn1-c1c(C)cccc1OCC(C)C)CCN(c1cc(C(C)(C)C)ccc1C)C2 [Example 1.443] |
| 7.30 to 8.30 | CCc1cccc(C)c1-n1nc2c(c1-c1ccc(NC(N)=O)cc1)CN(c1cc(C(C)(C)C)ccc1C)CC2 [Example 1.380] |
| 6.30 to 7.30 | Cc1cccc(OCC(C)C)c1-n1nc2c(c1-c1ccc(NC(N)=O)cc1)CN(CCC(C)(C)C)CC2 [Example 1.393] |
| 7.30 to 8.30 | Cc1cccc(OCC(C)C)c1-n1nc2c(c1-c1ccc(NC(N)=O)cc1)CN(CC(C)(C)C(F)(F)F)CC2 [Example 1.373] |

The remaining lines, values behind:

| Structure (SMILES) | pIC50 |
| --- | --- |
| CC(C)COc1cccc(F)c1-n1nc2c(c1-c1cc(F)c(NC(N)=O)cc1F)CN(C(C)(C)c1ccccc1)CC2 [Example 1.198] | ≥ 8.30 |
| CCc1cccc(CC)c1-n1nc2c(c1-c1cc(F)c(NC(N)=O)cc1F)CN(Cc1ccc(C(F)(F)F)cc1)CC2 [Example 1.065] | ≥ 8.30 |
| COc1ccc(CN2CCc3nn(-c4c(C)cccc4OCC(C)C)c(-c4ccc(NC(N)=O)cc4)c3C2)c(Cl)c1 [Example 1.304] | 7.30 to 8.30 |
| CCc1cccc(CC)c1-n1nc2c(c1-c1cc(F)c(NC(N)=O)cc1F)CN(C(=O)c1ccnn1C)C(C)(C)C2 [Example 1.005] | 7.30 to 8.30 |
| CC[C@@H](c1ccccc1)N1CCc2nn(-c3c(C)cccc3C)c(-c3cc(F)c(NC(N)=O)cc3F)c2C1 [Example 1.092] | ≥ 8.30 |
| CCc1cccc(CC)c1-n1nc2c(c1-c1cc(F)c(NC(N)=O)cc1F)CN(Cc1cc(C(F)(F)F)ccc1C)CC2 [Example 1.036] | ≥ 8.30 |
| CCc1cccc(CC)c1-n1nc2c(c1-c1cc(F)c(NC(N)=O)cc1F)CN(Cc1ccccc1Cl)C(C)(C)C2 [Example 1.007] | ≥ 8.30 |
| Cc1cccc(OCC(C)C)c1-n1nc2c(c1-c1cc(F)c(NC(N)=O)cc1F)CN(c1ncc(C(C)C)cn1)CC2 [Example 1.166] | ≥ 8.30 |
| CCc1cccc(CC)c1-n1nc2c(c1-c1cc(F)c(NC(N)=O)cc1F)CN(Cc1ccc(C(F)(F)F)cc1F)C(C)(C)C2 [Example 1.050] | ≥ 8.30 |
| Cc1cccc(OCC(C)C)c1-n1nc2c(c1-c1ccc(NC(N)=O)cc1)CN(CC(C)(C)C)CC2(C)C [Example 1.260] | < 6.30 |
| CCc1cccc(CC)c1-n1nc2c(c1-c1cc(F)c(NC(N)=O)cc1F)CN(Cc1ccc(Cl)cc1C(F)(F)F)C(C)(C)C2 [Example 1.052] | ≥ 8.30 |
| CC(C)COc1ccccc1-n1nc2c(c1-c1cc(F)c(NC(N)=O)cc1F)CN(c1ncc(C(F)(F)F)cc1F)CC2 [Example 1.205] | ≥ 8.30 |
| CC(C)COc1ccccc1-n1nc2c(c1-c1cc(F)c(NC(N)=O)cc1F)CN(c1ncc(Cl)cc1Cl)CC2 [Example 1.189] | ≥ 8.30 |
| CCc1cccc(CC)c1-n1nc2c(c1-c1cc(F)c(NC(N)=O)cc1F)CN(CC1CCOCC1)C(C)(C)C2 [Example 1.040] | ≥ 8.30 |
| Cc1cc(C(N)=O)ccc1-c1c2c(nn1-c1c(C)cccc1C)CCN(c1ncc(Cl)cc1Cl)C2 [Example 1.108] | < 6.30 |
| C=C(C)c1cnc(N2CCc3nn(-c4c(C)cccc4OCC(C)C)c(-c4ccc(NC(N)=O)c(F)c4)c3C2)c(F)c1 [Example 1.220] | ≥ 8.30 |
| Cc1cccc(OCC(C)C)c1-n1nc2c(c1-c1ccc(NC(N)=O)cc1)CN(Cc1cc(Cl)ccc1F)CC2 [Example 1.309] | ≥ 8.30 |
| CCc1cccc(CC)c1-n1nc2c(c1-c1cc(F)c(NC(N)=O)cc1F)CN(Cc1cc(Cl)ccc1Cl)CC2 [Example 1.070] | ≥ 8.30 |
| Cc1cccc(C)c1-n1nc2c(c1-c1cc(F)c(NC(N)=O)cc1F)CN(Cc1ccc(C(F)(F)F)cc1C(F)(F)F)C(C)(C)C2 [Example 1.033] | ≥ 8.30 |
| CCc1cccc(CC)c1-n1nc2c(c1-c1ccc(NC(N)=O)cc1)CN(C(c1ccccc1C(F)(F)F)C(C)C)CC2 (centres unmarked) [Example 1.281] | ≥ 8.30 |

| Structure (SMILES) | pIC50 |
| --- | --- |
| CC(C)COc1cccc(F)c1-n1nc2c(c1-c1cc(F)c(NC(N)=O)cc1F)CN(c1ncc(C(F)(F)F)cc1F)CC2 [Example 1.203] | ≥ 8.30 |
| CCc1cccc(CC)c1-n1nc2c(c1-c1cc(F)c(NC(N)=O)cc1F)CN(Cc1ccc(Cl)cc1C(F)(F)F)[C@@H](C)C2 [Example 1.015] | ≥ 8.30 |
| Cc1cccc(C)c1-n1nc2c(c1-c1cc(F)c(NC(=O)CN)cc1F)CN(c1ncc(Cl)cc1Cl)CC2 [Example 1.116] | < 6.30 |
| CCc1cccc(CC)c1-n1nc2c(c1-c1cc(F)c(NC(N)=O)cc1C)CN(C(C)c1ccccc1C(F)(F)F)CC2 (centres unmarked) [Example 1.197] | ≥ 8.30 |
| Cc1ccc(CN2CCc3nn(-c4c(C)cccc4OCC(C)C)c(-c4ccc(NC(N)=O)cc4)c3C2)c(F)c1 [Example 1.308] | ≥ 8.30 |
| CCc1cccc(CC)c1-n1nc2c(c1-c1ccc(NC(N)=O)c(F)c1)CN(C(C)C1CCCC1)CC2 (centres unmarked) [Example 1.216] | 7.30 to 8.30 |
| Cc1cccc(OCC(C)C)c1-n1nc2c(c1-c1ccc(NC(N)=O)c(F)c1)CN(c1ncc(C(F)(F)F)cc1F)CC2 [Example 1.288] | ≥ 8.30 |
| Cc1cccc(F)c1-n1nc2c(c1-c1cc(F)c(NC(N)=O)cc1F)CN(c1ncc(Cl)cc1Cl)CC2 [Example 1.176] | ≥ 8.30 |
| Cc1cccc(OCC(C)C)c1-n1nc2c(c1-c1cc(F)c(NC(N)=O)cc1F)CN(c1ncc(C(F)(F)F)cc1F)CC2 [Example 1.242] | ≥ 8.30 |
| Cc1cccc(OCC(C)C)c1-n1nc2c(c1-c1cc(F)c(NC(N)=O)cc1F)CN(c1ncc(Cl)cn1)CC2 [Example 1.175] | ≥ 8.30 |
| Cc1cccc(C)c1-n1nc2c(c1-c1cc(F)c(NC(N)=O)cc1F)CN(c1ncc(Cl)cn1)CC2 [Example 1.155] | 7.30 to 8.30 |
| Cc1cccc(OCC(C)C)c1-n1nc2c(c1-c1cc(F)c(NC(N)=O)cc1F)CN(c1nccn3ccnc13)CC2 [Example 1.142] | 7.30 to 8.30 |
| Cc1cccc(OCC(C)C)c1-n1nc2c(c1-c1ccc(NC(N)=O)cc1)CN(S(=O)(=O)c1ccccc1C(F)(F)F)CC2 [Example 1.298] | 6.30 to 7.30 |
| CC(C)(c1ccccc1)N1CCc2nn(-c3ccccc3OCC(F)(F)F)c(-c3cc(F)c(NC(N)=O)cc3F)c2C1 [Example 1.136] | ≥ 8.30 |
| Cc1cccc(C)c1-n1nc2c(c1-c1cc(F)c(NC(N)=O)cc1F)CN(c1ccc(C(F)(F)F)cc1F)CC2 [Example 1.122] | ≥ 8.30 |
| Cc1cccc(OCC(C)C)c1-n1nc2c(c1-c1ccc(NC(N)=O)c(F)c1)CN(CC1CCCCC1)CC2 [Example 1.256] | ≥ 8.30 |
| Cc1cccc(OCC(C)C)c1-n1nc2c(c1-c1ccc(NC(N)=O)c(F)c1)CN(c1ccc(C(F)(F)F)cc1Cl)CC2 [Example 1.241] | ≥ 8.30 |
| Cc1cccc(OCC(C)C)c1-n1nc2c(c1-c1cc(F)c(NC(N)=O)cc1F)CN(c1ccc(Cl)cc1Cl)CC2 [Example 1.194] | ≥ 8.30 |
| Cc1cccc(C)c1-n1nc2c(c1-c1cc(F)c(NC(N)=O)cc1F)CN(c1ccc(Cl)cc1)CC2 [Example 1.095] | ≥ 8.30 |
